Results from article PMC4941353, “Interaction of antihistaminic drugs with human translationally controlled tumor protein (TCTP) as novel approach for differentiation therapy” (Oncotarget, 2016).

Columns and labels:
[1] = target: T1, translationally controlled tumor protein (TCTP) (Homo sapiens, UniProt P13693); experiment: microscale thermophoresis with amine-labeled (BLUE-NHS) purified TCTP, buffer with […] chloroform; type: binding
T1 construct: gene TPT1; recombinant human TCTP (172 amino acids), codon-optimized, expressed in E. coli, intein tag cleaved on column
T1 sequence (P13693 1-172): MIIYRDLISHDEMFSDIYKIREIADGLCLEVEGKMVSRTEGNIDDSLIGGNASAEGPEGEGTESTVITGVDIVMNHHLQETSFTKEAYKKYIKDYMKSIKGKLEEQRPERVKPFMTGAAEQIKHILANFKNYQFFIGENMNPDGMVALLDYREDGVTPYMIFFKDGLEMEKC

[2] = target: T1, translationally controlled tumor protein (TCTP); experiment: microscale thermophoresis with amine-labeled (BLUE-NHS) purified TCTP; type: binding

Kd [1] [µM] | Kd [2] [µM] | Compound
433 ± 47.1 |  | CC(C)(C)c1ccc(CN2CCN(C(c3ccccc3)c3ccc(Cl)cc3)CC2)cc1 (centres unmarked) [buclizine]
 | 57.2 ± 6.49 | COc1ccc2c(c1)N(C[C@H](C)CN(C)C)c1ccccc1S2 [levomepromazine]
